The text below walks through data of BindingDB's records for patent US20240051936 (Monte Rosa Therapeutics, 2024).

The experiment concerns the target Protein cereblon (Homo sapiens, UniProt Q96SW2). Description: Fluorescent Polarization Assay. Here is the method: Compound activity was monitored in a fluorescence polarization (FP) homogeneous assay using 1-[5-({2-[2-(2-{[2-(2,6-dioxopiperidin-3-yl)-1,3-dioxo-2,3-dihydro-1H-isoindol-4-yl]oxy}acetamido)ethoxy]ethyl}carbamoyl)pentyl]-3,3-dimethyl-2-[(1E,3E)-5-[(2E)-1,3,3-trimethyl-5-sulfo-2,3-dihydro-1H-indol-2-ylidene]penta-1,3-dien-1-yl]-3H-indol-1-ium-5-sulfonate as a fluorescent probe. Unless otherwise stated, all reagents were purchased from Sigma Aldrich. Enzymatic reactions were conducted in Perkin-Elmer Black 384 well ProxiPlate Plus (catalogue no. 6008269) in 10 sL total volume. Full length wild-type cereblon CRBN (80.0 nM, 10 sL) was incubated in assay buffer containing 20 mM HEPES (pH 8.0), […], 0.5 mM TCEP and 0.05% Tween 20 in the presence or absence of compound (300 nL). Inhibitors were stored as 10 mM DMSO stocks in an inert environment (low humidity, dark, low oxygen, room temperature) using the Storage Pod System. Compounds and DMSO were dispensed using the Echo E5XX (Labcyte Inc. USA) to give concentrations from 300 to 0.937 or 3000 to 9.3 nM in a 12 data point curve. […] Following incubation at room temperature for 30 min, the assay was initiated by dispensing the probe to a final concentration of 5 nM (2.5 nL of a 20 μM stock) using the Echo E5XX. FP was measured after a period of 12 hours using a Pherastar plate reader (BMG Labtech, Germany) exciting at 590 nm and measuring the amount of parallel and perpendicular light at 675 nm. The FP signal was subsequently normalized to the no-compound control (i.e., DMSO). Analysis and IC50 values were derived using Dotmatics (Dotmatics UK) software.

Some results are limits rather than exact numbers.

Protein cereblon, sequence (Q96SW2 whole entry): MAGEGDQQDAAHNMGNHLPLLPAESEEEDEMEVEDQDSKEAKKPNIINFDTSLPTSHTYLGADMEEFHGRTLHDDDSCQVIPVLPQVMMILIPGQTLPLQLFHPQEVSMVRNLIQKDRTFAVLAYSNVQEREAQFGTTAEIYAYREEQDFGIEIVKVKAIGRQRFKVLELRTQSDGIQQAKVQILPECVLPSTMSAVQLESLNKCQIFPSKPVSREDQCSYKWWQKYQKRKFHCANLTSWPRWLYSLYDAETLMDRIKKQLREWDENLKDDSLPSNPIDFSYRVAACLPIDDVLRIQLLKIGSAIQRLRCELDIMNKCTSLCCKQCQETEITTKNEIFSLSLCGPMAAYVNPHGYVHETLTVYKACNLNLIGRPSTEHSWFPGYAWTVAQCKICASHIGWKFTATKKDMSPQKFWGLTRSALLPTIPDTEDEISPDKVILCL

As a reminder, the IC50 is the point on the concentration scale where inhibition reaches its midpoint. Take `CC(C)(C)c1ccc(NC(=O)OCc2cc(F)c3c(c2)C(=O)N(C2CCC(=O)NC2=O)C3)cc1` (centres undefined) [US20240051936, Compound 10]: the IC50 is > 1900 nM.

`O=C1CCC(N2Cc3c(F)cc(COC(=O)Nc4ccc(F)c(OC(F)(F)F)c4)cc3C2=O)C(=O)N1` (centres undefined) [US20240051936, Compound 14]: the IC50 was > 1900 nM.

For the compound `O=C1CCC(N2Cc3c(F)cc(COC(=O)Nc4ccc(C5CCC5)cc4)cc3C2=O)C(=O)N1` (centres undefined) [US20240051936, Compound 22], the IC50 was > 1900 nM.

In the case of `O=C1CCC(N2Cc3c(F)cc(COC(=O)Nc4ccc(-c5ccccc5F)c(F)c4)cc3C2=O)C(=O)N1` (centres undefined) [US20240051936, Compound 29], the IC50 is > 1900 nM.

As for `O=C1CCC(N2Cc3c(F)cc(COC(=O)Nc4cc(F)c(-c5ccccc5)c(F)c4)cc3C2=O)C(=O)N1` (centres undefined) [US20240051936, Compound 30], the IC50 is > 1900 nM.

In the case of `O=C1CCC(N2Cc3c(F)cc(COC(=O)Nc4ccc(F)c(Cl)c4)cc3C2=O)C(=O)N1` (centres undefined) [US20240051936, Compound 32], the half-maximal inhibitory concentration (IC50) was > 1900 nM.

With `O=C1CCC(N2Cc3c(F)cc(COC(=O)Nc4cc(F)cc(Cl)c4)cc3C2=O)C(=O)N1` (centres undefined) [US20240051936, Compound 33], the IC50 was > 1900 nM.

As for `O=C1CCC(N2Cc3c(F)cc(COC(=O)Nc4cc(F)c(F)c(Cl)c4)cc3C2=O)C(=O)N1` (centres undefined) [US20240051936, Compound 61], the IC50 was > 1900 nM.

As to `COc1c(COC(=O)Nc2ccc(C)c(Cl)c2)ccc2c1C(=O)N(C1CCC(=O)NC1=O)C2` (centres undefined) [US20240051936, Compound 70], the IC50 was > 1900 nM.
